Laboratory results: patent US20220233688A1, “ADJUVANTS FOR IMMUNOGENIC COMPOSITIONS AND METHODS OF USE THEREOF” (UNIVERSITY OF MARYLAND, BALTIMORE, priority 2019, published 2022)
Entries after “also recorded” stand apart in the source; their conditions may differ.

Assays:
[1] = reported in literature (21); cited from earlier work
RSV A2 = type: in vivo, Balb/c mice; conditions: IM days 0 and 21, RSV A2 challenge, lung four days after challenge (day 39)
Cal/09 rHA = system: Cal/09 rHA; design: species or system BALB/c mice; conditions: mouse, in vivo
[2] = system: A/Netherlands/602/2009 (H1N1) (NL/09) virus; type: in vivo, BALB/c mice; conditions: 7 days
[3] = system: A/Netherlands/602/2009 (H1N1) (NL/09) virus; assay: Lung tissue histology inflammation scoring after NL/09 challenge; type: in vivo, BALB/c mice; conditions: 0.04 ug rHA alone or with 100 ug Alum or 50 ug PHAD/BECC, prime-boost
Protocol: Staining of lung tissue was performed by the UMB EM and Histology Laboratory to assess any histological signs and potential clearing of viral infection. 4% Paraformaldehyde-fixed (Sigma-Aldrich, St Louis, Mo.) lungs were embedded in paraffin and sectioned before staining with haematoxylin and eosin (H&E). Representative slides were selected to most accurately portray the condition of the lungs within each group of vaccinated mice. Pathology scoring was performed by Dr (LT) Robert Kitz, Anatomic Pathologist, Walter Reed National Military Medical Center, Bethesda, Md. Lung sections from each mouse were scored based on overall inflammation using the following scoring parameters (group scores averaged): 0=no inflammation, 1=scant inflammation (<5% multifocal or one small focus); 2=prominent inflammation, <25% parenchyma; 3=prominent inflammation, 25-50% parenchyma; 4=diffuse inflammation, 50-75% parenchyma; 5=diffuse inflammation, >75% parenchyma.

HPV16-L1 VLPs = system: HPV16-L1 VLPs; design: species or system BALB/c mice; conditions: mouse, in vivo

CCCCCCCCCCCCCC(=O)O[C@H](CCCCCCCCCCC)CC(=O)O[C@@H]1[C@@H](NC(=O)C[C@H](CCCCCCCCCCC)OC(=O)CCCCCCCCCCCCC)[C@H](OC[C@H]2O[C@H](O)[C@H](NC(=O)C[C@H](O)CCCCCCCCCCC)[C@@H](OC(=O)C[C@H](O)CCCCCCCCCCC)[C@@H]2O)O[C@H](CO)[C@H]1OP(=O)(O)O [GLA, glucopyranosyl lipid-A]
particle size of aqueous formulation [1]: 90 nm

phosphorylated hexa-acyl disaccharide [PHAD]
protection by lung viral titers (RSV A2): full protection in the lower respiratory tract
Day 28 total serum IgG antibody titer (Cal/09 rHA): significant difference between the HA alone and PHAD groups; also recorded: somewhat higher
HA-specific IgG2a titer (Cal/09 rHA): significantly higher than sham
average weight loss [2]: 10%
histological inflammation scoring of lung [3]: low inflammation scores with minimal bronchiolar or periarterial inflammation
L1 ELISA Ab levels (HPV16-L1 VLPs): greater L1 ELISA Ab levels compared to alum alone
